Measurements published in patent publication US20040220164A1, “Triaza compound immunoregulatory agents” (priority 2001, published 2004).
Values after ≈ are worked out from the molar mass of the structure shown. Read-outs that look alike come from different tables or passages of the source. Blank lines part the entries; values can stand above or below the compound they belong to.

Tests used:
[1] = test system: HIV-1 strain NL4.3; test: Anti-HIV-1 assay (p24 Ag ELISA); type: cell-based; conditions: for IC50: read-out: IC50 against HIV-1 NL4.3; for p24 viral core antigen in supernatant: MT-4, NL4.3
Experimental: (§1) The antiviral activity of CADA against HIV-1 and RHV-7 was investigated. PBMCs and […] cell-depleted PBMCs (removed with CD8 magnetic beads; Dynal AS, Oslo, Norway), previously activated with purified PHA (2 μg/ml) and rhIL-2 (1 ng/ml) for 3 days, were pelleted and exposed to HIV-1 (1 ng p24 Ag per 10^6 cells) for 2 hours at 370C. Then the cells were washed three times with warm medium and cultured in complete medium containing rhIL-2 (1 ng/ml) in the presence or absence of different concentrations of CADA hydrochloride. The anti-HIV-1 assays were also performed in MT-4 and SupT1 cells. CADA hydrochloride was diluted in the plates, then the MT-4 cells or SupT1 cells were added and finally the T-tropic HIV-1 strains. The supernatant was collected at day 5 for MT-4 cells, day 8 for SupT1 cells and day 12 for PBMCs, and stored at −20° C. and analyzed for HIV-1 core antigen by p24 Ag ELISA (NEN, Brussels, Belgium). The SupT1 cells were refreshed on day 4, and half of the medium and cells were replaced and fresh CADA-free medium was added. For the PBMCs, fresh culture medium was added at day 6 containing rhIL-2 (but no CADA). For the anti-HHV-7 assays in PBMCs, CADA hydrochloride was diluted in a plate, 2×10˜cells were added and then HHV-7 (KHR strain) was added in complete medium containing rhIL-2 (1 ng/ml). Fresh culture medium was added again at day 6 containing rhIL-2 (but no CADA). The same infection protocol was used for the SupT1 cells, but without rhIL-2. The SupT1 cells were refreshed on day 4 and day 8, half of the medium and the cells were replaced, and fresh medium without CADA was added. The HHV-7 antigen expression was monitored (at day 12) with a specific mAb to HHV-7 (RK-4) (Advanced Biotechnologies, Columbia, Md.) by flow cytometry, as described previously (Thang, Y., et al., Antiviral Res. 43:23-35 (1999)).
(§2) Table 4 presents the results for MT-4 cells pretreated with CADA for 1 day at 8.1 μM and then infected with the HIV-1 strain NL4.3 or RF in the presence or absence of CADA. […] As three CD4 binding events are needed to efficiently activate HIV-1 Env trimers (Layne, S. P., et al., Nature 346: 602-605 (1990)), multimeric CD4 binding is required for HIV infection, further confirming that receptor density plays a crucial role in the efficiency of viral infectivity (Platt, E. J., et al., J. Virol. 71: 883-890 (1997)). […] Primary HIV isolates seem to be much more dependent on the level of CD4 expression (Kabat; D., et al., J. Virol. 68:2570-2577 (1994)). […] Although CD4-independent viruses are described (Hofflian, T. L., et al., Proc. Natl. Acad. Sci. U.S.A. 96: 63 59-6364 (1999)), these are much more sensitive to neutralization by antibodies, which explains the rarity of CD4-independent wild-type HIV variants (Kolchinski, P., et al., J. Virol. 75: 204 1-2050 (2001)).

[2] = test system: HIV-1 strain RF; test: Anti-HIV-1 assay (p24 Ag ELISA); type: cell-based; conditions: for IC50: read-out: IC50 against HIV-1 RF; for p24 viral core antigen in supernatant: MT-4, RF
Experimental: as §1, §2

[3] = Cytotoxicity assay (trypan blue exclusion, propidium iodide); type: cell-based, human; conditions: human, read-out: CC50 (50% cytotoxic concentration)
Experimental: Cytotoxicity Assay. Cellular toxicity of the compounds was measured by trypan blue exclusion and also by Propidium Iodide by flow cytometry after 3 or 4 days of incubation, in parallel with the CD4 antigen expression. The CC50 value of each CADA analog is the concentration (in μg/ml) required to reduce the viability of the cells by 50%.

[4] = target: CD4 (Homo sapiens, UniProt P01730); test: CD4 down-modulation, flow cytometry with FITC-conjugated anti-CD4 (SK3) mAb, MT-4 cells; type: cell-based; design: To study the effect of the CADA derivatives on surface CD4 antigen expression, MT-4 and SupT1 cells were incubated; endogenous in cells; host or cells: MT-4, SupT1, PBMC; conditions: for down-regulation of CD4 receptor expression / IC50: MT-4 cells; for down-regulation of CD4 receptor expression: 4 days (FIG. 5); for IC50: day 3, read-out: IC50 CD4 (50% inhibition of extracellular CD4 expression) (converted)
[5] = Human immunodeficiency virus 1, MT4, MT-4 cells
[6] = Human immunodeficiency virus 1, PBMC
[7] = Human immunodeficiency virus 1, SUP-T1, SupT1 cells
[8] = pre-treated (CADA 8.1 μM, 24 hours), CADA 0.13 μM after infection
[9] = pre-treated (CADA 8.1 μM, 24 hours), CADA 0.6 μM after infection
[10] = pre-treated (CADA 8.1 μM, 24 hours), CADA 3.2 μM after infection

Compound: C=C1CN(S(=O)(=O)c2ccc(C)cc2)CCCN(Cc2ccccc2)CCCN(S(=O)(=O)c2ccc(C)cc2)C1 [CADA]
- IC50 [1, 5]: 500 nM
- IC50 [1, 6]: 1600 nM
- IC50 [1, 7]: 3100 nM
- p24 viral core antigen in supernatant ([1]; cells pre-treated with CADA hydrochloride 8.1 μM 24 hours, medium without CADA after infection, untreated control 158627): 34839 pg/mL
- p24 viral core antigen in supernatant ([1]; not pre-treated, CADA 0.13 μM): 127838 pg/mL
- p24 viral core antigen in supernatant ([1]; not pre-treated, CADA 0.6 μM): 63098 pg/mL
- p24 viral core antigen in supernatant ([1]; not pre-treated, CADA 3.2 μM): <5 pg/mL
- p24 viral core antigen in supernatant [1, 8]: 33785 pg/mL
- p24 viral core antigen in supernatant [1, 9]: <5 pg/mL
- p24 viral core antigen in supernatant [1, 10]: <5 pg/mL
- IC50 [2, 5]: 900 nM
- IC50 [2, 6]: 1900 nM
- IC50 [2, 7]: 1800 nM
- p24 viral core antigen in supernatant ([2]; cells pre-treated with CADA hydrochloride 8.1 μM 24 hours, medium without CADA after infection, untreated control 100002): 42853 pg/mL
- p24 viral core antigen in supernatant ([2]; not pre-treated, CADA 0.13 μM): 75118 pg/mL
- p24 viral core antigen in supernatant ([2]; not pre-treated, CADA 0.6 μM): 56139 pg/mL
- p24 viral core antigen in supernatant ([2]; not pre-treated, CADA 3.2 μM): <5 pg/mL
- p24 viral core antigen in supernatant [2, 8]: 35894 pg/mL
- p24 viral core antigen in supernatant [2, 9]: <5 pg/mL
- p24 viral core antigen in supernatant [2, 10]: <5 pg/mL
- CC50 ([3]; MT-4 cells): 23.6 µg/mL (≈ 40.6 µM)
- CC50 ([3]; SupT1 cells): > 50 µg/mL
- down-regulation of CD4 receptor expression ([4]; 0.08 μg/ml): no inhibitory effect
- down-regulation of CD4 receptor expression ([4]; 0.4 μg/ml): 58%
- down-regulation of CD4 receptor expression ([4]; 2 μg/ml): significantly down-modulated
- down-regulation of CD4 receptor expression ([4]; 10 μg/ml): significantly down-modulated
- IC50 [4]: 602 nM

- down-regulation of CD4 receptor expression ([4]; 0.4 μg/ml): 73%
- IC50 [4]: 357 nM
- CD4 down-regulating potency, fold more active than CADA ([4]; compared to CADA): 2 fold
Compound: C=C1CN(S(=O)(=O)c2ccc(C)cc2)CCCN(CC2CCCCC2)CCCN(S(=O)(=O)c2ccc(C)cc2)C1 [QJ028]
- CC50 ([3]; MT-4 cells): 20.7 µg/mL (≈ 35.2 µM)
- CC50 ([3]; SupT1 cells): 28.1 µg/mL (≈ 47.8 µM)

- down-regulation of CD4 receptor expression ([4]; 0.4 μg/ml): nor significant CD4 down-regulation
- down-regulation of CD4 receptor expression ([4]; 2 μg/ml): 69%
- IC50 [4]: 2060 nM
- CD4 receptor down-modulating activity, fold higher than compound 95-213 ([4]; compared to 95-213): 5 fold
Compound: C=C1CN(S(=O)(=O)c2ccc(C)cc2)CCCN(C(=O)OCCC)CCCN(S(=O)(=O)c2ccc(C)cc2)C1 [QJ033]
- CC50 ([3]; MT-4 cells): 25.5 µg/mL (≈ 44.1 µM)
- CC50 ([3]; SupT1 cells): 32.5 µg/mL (≈ 56.3 µM)
